Experiments:
Type in all cases: in vivo
Zea mays [1] = test: Crop compatibility post-emergence (greenhouse pot trial)
Method in brief: (§1)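 Compatibility is expressed as visually scored percent injury, where 0% means no difference from untreated controls and 100% means dead plants, assessed about 3 weeks after a foliar spray at 600 L/ha with 0.5% additive on one-leaf-stage pot plants in sandy loam.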

Triticum aestivum = test: as above; settings: application rate 20 g/ha
Method in brief: as §1

Oryza sativa [2] = test: as above; settings: application rate 20 g/ha
Method in brief: as §1

Zea mays [3] = test: Crop compatibility pre-emergence (greenhouse pot trial); settings: effect vs untreated controls
Method in brief: (§2)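 Compounds, formulated as WP or EC plus 0.5% additive, applied to covering soil after sowing at a water rate of 600 L/ha. After roughly 3 weeks under greenhouse conditions, visual % injury to crops rated against untreated plants, 0% meaning like control.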

Oryza sativa [4] = test: as above; settings: application rate 80 g/ha, effect vs untreated controls
Method in brief: as §2

Glycine max [5] = test: as above; settings: application rate 80 g/ha, effect vs untreated controls
Method in brief: as §2

Matricaria inodora [6] = test: Herbicidal action pre-emergence (greenhouse pot trial); settings: scored after about 3 weeks
Method in brief: (§3)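 Pre-emergence soil-surface spray, 320 g/ha or lower, WP/EC formulations in water with 0.5% additive, 600 L/ha. Greenhouse, ~3 wk. Visual % efficacy vs untreated controls (100% = plants dead, 0% = like control).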

Amaranthus retroflexus [7] = test: as above; settings: scored after about 3 weeks
Method in brief: as §3

Abutilon theophrasti [8] = test: as above; settings: scored after about 3 weeks
Method in brief: as §3

Setaria viridis [9] = test: Herbicidal action post-emergence (greenhouse pot trial); settings: scored visually after about 3 weeks vs untreated controls
Method in brief: (§4)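 Post-emergence spray at one-leaf stage (2–3 wk after sowing, sandy loam, greenhouse); WP/EC in water + 0.5% additive; 600 L/ha; rate 80 g/ha or less. Visual % efficacy at ~3 wk vs untreated (100 = dead).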

Stellaria media [10] = test: as above; settings: scored visually after about 3 weeks vs untreated controls
Method in brief: as §4

Viola tricolor [11] = test: as above
Method in brief: as §4

Pharbitis purpurea [12] = test: as above
Method in brief: as §4

Matricaria inodora [13] = test: as above; settings: scored visually after about 3 weeks vs untreated controls
Method in brief: as §4

Digitaria sanguinalis = test: as above; settings: application rate 20 g/ha
Method in brief: as §4

Veronica persica [14] = test: as above
Method in brief: as §4

Amaranthus retroflexus [15] = test: as above; settings: scored visually after about 3 weeks vs untreated controls
Method in brief: as §4

Abutilon theophrasti [16] = test: as above; settings: scored visually after about 3 weeks vs untreated controls
Method in brief: as §4

Lolium rigidum [17] = test: Herbicidal action pre-emergence (greenhouse pot trial); settings: application rate 320 g/ha
Method in brief: as §3

Setaria viridis [18] = test: as above; settings: application rate 320 g/ha, scored after about 3 weeks
Method in brief: as §3

Stellaria media [19] = test: as above; settings: application rate 320 g/ha, scored after about 3 weeks
Method in brief: as §3

Alopecurus myosuroides [20] = test: as above; settings: application rate 320 g/ha, scored after about 3 weeks
Method in brief: as §3

Echinochloa crus-galli [21] = test: as above; settings: application rate 320 g/ha, scored after about 3 weeks
Method in brief: as §3

Viola tricolor [22] = test: as above; settings: application rate 320 g/ha, scored after about 3 weeks
Method in brief: as §3

Pharbitis purpurea [23] = test: as above; settings: application rate 320 g/ha
Method in brief: as §3

Hordeum murinum [24] = test: as above; settings: application rate 320 g/ha
Method in brief: as §3

Cyperus esculentus = test: as above; settings: application rate 320 g/ha
Method in brief: as §3

Avena fatua [25] = test: as above; settings: application rate 320 g/ha
Method in brief: as §3

Lolium rigidum [26] = test: Herbicidal action post-emergence (greenhouse pot trial); settings: application rate 80 g/ha, scored visually after about 3 weeks vs untreated controls
Method in brief: as §4

Alopecurus myosuroides [27] = test: as above; settings: application rate 80 g/ha, scored visually after about 3 weeks vs untreated controls
Method in brief: as §4

Echinochloa crus-galli [28] = test: as above; settings: scored visually after about 3 weeks vs untreated controls
Method in brief: as §4

Polygonum convolvulus = test: as above; settings: scored visually after about 3 weeks vs untreated controls
Method in brief: as §4

Hordeum murinum [29] = test: as above; settings: application rate 80 g/ha, scored visually after about 3 weeks vs untreated controls
Method in brief: as §4

Avena fatua [30] = test: as above; settings: application rate 80 g/ha, scored visually after about 3 weeks vs untreated controls
Method in brief: as §4

Glycine max [31] = test: Crop compatibility post-emergence (greenhouse pot trial); settings: application rate 20 g/ha
Method in brief: as §1

Veronica persica [32] = test: Herbicidal action pre-emergence (greenhouse pot trial); settings: application rate 320 g/ha
Method in brief: as §3

CC(Sc1cc(-n2c(=O)cc(C(F)(F)F)n(C)c2=O)c(F)cc1Cl)C(=O)OC1CCCOC1 (centres unmarked) [I.1-126]
100%: Matricaria inodora (Efficacy in %) (Matricaria inodora [6]; application rate 80 g/ha) | Amaranthus retroflexus (Efficacy in %) (Amaranthus retroflexus [7]; application rate 80 g/ha) | Abutilon theophrasti (Efficacy in %) (Abutilon theophrasti [8]; application rate 80 g/ha) | Setaria viridis (Efficacy in %) (Setaria viridis [9]; application rate 20 g/ha) | Stellaria media (Efficacy in %) (Stellaria media [10]; application rate 20 g/ha) | Viola tricolor (Efficacy in %) (Viola tricolor [11]; application rate 20 g/ha) | Pharbitis purpurea (Efficacy in %) (Pharbitis purpurea [12]; application rate 20 g/ha) | Veronica persica (Efficacy in %) (Veronica persica [14]; application rate 20 g/ha) | Amaranthus retroflexus (Efficacy in %) (Amaranthus retroflexus [15]; application rate 20 g/ha) | Abutilon theophrasti (Efficacy in %) (Abutilon theophrasti [16]; application rate 20 g/ha)
90%: Matricaria inodora (Efficacy in %) (Matricaria inodora [13]; application rate 20 g/ha)
0%: Oryza sativa (Efficacy in %) (Oryza sativa [2]) | Zea mays (Efficacy in %) (Zea mays [3]; application rate 80 g/ha)
80%: Digitaria sanguinalis (Efficacy in %) (Digitaria sanguinalis)
10%: Glycine max (Efficacy in %) (Glycine max [5])
20%: Zea mays (Efficacy in %) (Zea mays [1]; application rate 20 g/ha) | Triticum aestivum (Efficacy in %) (Triticum aestivum) | Oryza sativa (Efficacy in %) (Oryza sativa [4])

CC(Sc1cc(-n2c(=O)cc(C(F)(F)F)n(C)c2=O)c(F)cc1Cl)C(=O)NCC1CCCO1 (centres unmarked) [I.1-221]
90%: Alopecurus myosuroides (Efficacy in %) (Alopecurus myosuroides [20]) | Lolium rigidum (Efficacy in %) (Lolium rigidum [26]) | Alopecurus myosuroides (Efficacy in %) (Alopecurus myosuroides [27])
20%: Triticum aestivum (Efficacy in %) (Triticum aestivum)
0%: Oryza sativa (Efficacy in %) (Oryza sativa [2]) | Zea mays (Efficacy in %) (Zea mays [3]; application rate 20 g/ha)
100%: Lolium rigidum (Efficacy in %) (Lolium rigidum [17]) | Setaria viridis (Efficacy in %) (Setaria viridis [18]) | Stellaria media (Efficacy in %) (Stellaria media [19]) | Echinochloa crus-galli (Efficacy in %) (Echinochloa crus-galli [21]) | Viola tricolor (Efficacy in %) (Viola tricolor [22]) | Pharbitis purpurea (Efficacy in %) (Pharbitis purpurea [23]) | Hordeum murinum (Efficacy in %) (Hordeum murinum [24]) | Cyperus esculentus (Efficacy in %) (Cyperus esculentus) | Matricaria inodora (Efficacy in %) (Matricaria inodora [6]; application rate 320 g/ha) | Avena fatua (Efficacy in %) (Avena fatua [25]) | Amaranthus retroflexus (Efficacy in %) (Amaranthus retroflexus [7]; application rate 320 g/ha) | Abutilon theophrasti (Efficacy in %) (Abutilon theophrasti [8]; application rate 320 g/ha) | Setaria viridis (Efficacy in %) (Setaria viridis [9]; application rate 80 g/ha) | Stellaria media (Efficacy in %) (Stellaria media [10]; application rate 80 g/ha) | Echinochloa crus-galli (Efficacy in %) (Echinochloa crus-galli [28]; application rate 80 g/ha) | Viola tricolor (Efficacy in %) (Viola tricolor [11]; application rate 80 g/ha) | Polygonum convolvulus (Efficacy in %) (Polygonum convolvulus; application rate 80 g/ha) | Pharbitis purpurea (Efficacy in %) (Pharbitis purpurea [12]; application rate 80 g/ha) | Matricaria inodora (Efficacy in %) (Matricaria inodora [13]; application rate 80 g/ha) | Veronica persica (Efficacy in %) (Veronica persica [14]; application rate 80 g/ha) | Amaranthus retroflexus (Efficacy in %) (Amaranthus retroflexus [15]; application rate 80 g/ha) | Abutilon theophrasti (Efficacy in %) (Abutilon theophrasti [16]; application rate 80 g/ha)
80%: Hordeum murinum (Efficacy in %) (Hordeum murinum [29]) | Avena fatua (Efficacy in %) (Avena fatua [30])
10%: Zea mays (Efficacy in %) (Zea mays [1]; application rate 5 g/ha)

CC(Sc1cc(-n2c(=O)cc(C(F)(F)F)n(C)c2=O)c(F)cc1Cl)C(=O)OCC1CCOC1 (centres unmarked) [I.1-72]
20%: Zea mays (Efficacy in %) (Zea mays [1]; application rate 20 g/ha) | Zea mays (Efficacy in %) (Zea mays [3]; application rate 80 g/ha) | Glycine max (Efficacy in %) (Glycine max [5])
0%: Triticum aestivum (Efficacy in %) (Triticum aestivum)
100%: Lolium rigidum (Efficacy in %) (Lolium rigidum [17]) | Setaria viridis (Efficacy in %) (Setaria viridis [18]) | Stellaria media (Efficacy in %) (Stellaria media [19]) | Echinochloa crus-galli (Efficacy in %) (Echinochloa crus-galli [21]) | Viola tricolor (Efficacy in %) (Viola tricolor [22]) | Pharbitis purpurea (Efficacy in %) (Pharbitis purpurea [23]) | Matricaria inodora (Efficacy in %) (Matricaria inodora [6]; application rate 320 g/ha) | Avena fatua (Efficacy in %) (Avena fatua [25]) | Veronica persica (Efficacy in %) (Veronica persica [32]) | Amaranthus retroflexus (Efficacy in %) (Amaranthus retroflexus [7]; application rate 320 g/ha) | Abutilon theophrasti (Efficacy in %) (Abutilon theophrasti [8]; application rate 320 g/ha) | Lolium rigidum (Efficacy in %) (Lolium rigidum [26]) | Setaria viridis (Efficacy in %) (Setaria viridis [9]; application rate 80 g/ha) | Stellaria media (Efficacy in %) (Stellaria media [10]; application rate 80 g/ha) | Echinochloa crus-galli (Efficacy in %) (Echinochloa crus-galli [28]; application rate 80 g/ha) | Viola tricolor (Efficacy in %) (Viola tricolor [11]; application rate 80 g/ha) | Polygonum convolvulus (Efficacy in %) (Polygonum convolvulus; application rate 80 g/ha) | Pharbitis purpurea (Efficacy in %) (Pharbitis purpurea [12]; application rate 80 g/ha) | Matricaria inodora (Efficacy in %) (Matricaria inodora [13]; application rate 80 g/ha) | Veronica persica (Efficacy in %) (Veronica persica [14]; application rate 80 g/ha) | Amaranthus retroflexus (Efficacy in %) (Amaranthus retroflexus [15]; application rate 80 g/ha) | Abutilon theophrasti (Efficacy in %) (Abutilon theophrasti [16]; application rate 80 g/ha)
90%: Alopecurus myosuroides (Efficacy in %) (Alopecurus myosuroides [20]) | Hordeum murinum (Efficacy in %) (Hordeum murinum [24])
80%: Cyperus esculentus (Efficacy in %) (Cyperus esculentus) | Hordeum murinum (Efficacy in %) (Hordeum murinum [29]) | Avena fatua (Efficacy in %) (Avena fatua [30])
10%: Glycine max (Efficacy in %) (Glycine max [31])

CC(Sc1cc(-n2c(=O)cc(C(F)(F)F)n(C)c2=O)c(F)cc1Cl)C(=O)OCC1CCCOC1 (centres unmarked) [I.1-92]
0%: Oryza sativa (Efficacy in %) (Oryza sativa [2]) | Zea mays (Efficacy in %) (Zea mays [3]; application rate 80 g/ha)
100%: Matricaria inodora (Efficacy in %) (Matricaria inodora [6]; application rate 80 g/ha) | Amaranthus retroflexus (Efficacy in %) (Amaranthus retroflexus [7]; application rate 80 g/ha) | Abutilon theophrasti (Efficacy in %) (Abutilon theophrasti [8]; application rate 80 g/ha) | Setaria viridis (Efficacy in %) (Setaria viridis [9]; application rate 20 g/ha) | Echinochloa crus-galli (Efficacy in %) (Echinochloa crus-galli [28]; application rate 20 g/ha) | Viola tricolor (Efficacy in %) (Viola tricolor [11]; application rate 20 g/ha) | Polygonum convolvulus (Efficacy in %) (Polygonum convolvulus; application rate 20 g/ha) | Pharbitis purpurea (Efficacy in %) (Pharbitis purpurea [12]; application rate 20 g/ha) | Veronica persica (Efficacy in %) (Veronica persica [14]; application rate 20 g/ha) | Amaranthus retroflexus (Efficacy in %) (Amaranthus retroflexus [15]; application rate 20 g/ha) | Abutilon theophrasti (Efficacy in %) (Abutilon theophrasti [16]; application rate 20 g/ha)
20%: Zea mays (Efficacy in %) (Zea mays [1]; application rate 20 g/ha)
10%: Triticum aestivum (Efficacy in %) (Triticum aestivum) | Oryza sativa (Efficacy in %) (Oryza sativa [4])
80%: Matricaria inodora (Efficacy in %) (Matricaria inodora [13]; application rate 20 g/ha)

— patent US11497212B2, “Substituted thiophenyl uracils, salts thereof and the use thereof as herbicidal agents” (Syngenta Crop Protection AG, priority 2017, dated 2022)
